Results: patent publication EP2362225 (dated 2011)
Entries after “also recorded” stand apart in the source; their conditions may differ.

Experiments:
[1] = system: T2.27 20S proteasomes (immunoproteasomes); assay: 20S proteasomes purified from T2.27 cells in Hepes buffer; settings: human T2 cells transfected with murine LMP2 and LMP7, 37°C, up to 48 hours
[2] = system: 20S proteasomes of T2 cells (standard proteasome); assay: T2 20S proteasomes (standard proteasome) in Hepes buffer; settings: human, 37°C, up to 48 hours
[3] = system: T2 20S proteasomes (standard proteasome); assay: 20S proteasomes purified from T2 cells in Hepes buffer; settings: human, 37°C, up to 48 hours
[4] = system: 20S proteasomes of Lymphoblastoid cell Lines (LcL); assay: LcL 20S proteasomes in Hepes buffer (Hepes 20 mM, KCI 1 mM, MgCl 0.5 mM, DTT 1 mM, NaN3 1 mM, pH 7.3); settings: human, 37°C, up to 48 hours
LcL 20S proteasomes = assay: 3 µg LcL 20S proteasomes in 100 µl buffer; gp10040-52 and its heavy analogue digested together; settings: human, up to 36 hours
[5] = system: 20S proteasomes of T2.27 cells (immunoproteasomes); assay: T2.27 20S proteasomes (immunoproteasomes) in Hepes buffer; settings: human T2 cells transfected with murine LMP2 and LMP7 subunits, 37°C, up to 48 hours

Row | fragment found [3] | fragment found (proteasome) | Substance | fragment found [1] | fragment found [2] | fragment found [4] | fragment found (LcL 20S proteasomes) | fragment found [5]
1 | gp10047-52/40-42 [QLYPEW][RTK] | gp10040-42/47-52 [RTK][QLYPEW] | RTKAWNRQLYPEW | gp10040-42/47-52 [RTK][QLYPEW]; also recorded: gp10047-52/40-42 [QLYPEW][RTK] | [RTK][QLYPEW]; also recorded: [QLYPEW][RTK] | gp10040-42/47-52 [RTK][QLYPEW]; also recorded: gp10047-52/40-42 [QLYPEW][RTK] | gp10040-042/47-52-α; also recorded: gp10047-52/40-42-α | [RTK][QLYPEW]; also recorded: [QLYPEW][RTK]
2 |  |  | RTK^+6AWNRQL^+1YPEW |  |  |  | gp10040-42/47-52-δ; also recorded: gp10047-52/40-42-δ | 
3 |  |  | VSRQLRTKAWNRQLYPEWTEAQR |  | [VSRQL][VSRQL] (gp10035-39/35-39); also recorded: [QLYPEWTEA][VSRQL] (gp10047-55/35-39) |  |  | [VSRQL][VSRQL] (gp10035-39/35-39); also recorded: [QLYPEWTEA][VSRQL] (gp10047-55/35-39)
